The source made the active and inactive calls.
Key:
[1] = tested on: Escherichia coli; experiment: microbe, parasite or virus in culture
[2] = target: T1, RNA-binding protein pos-1 (Caenorhabditis elegans, UniProt G5EF15); experiment: inhibitors of POS-1/mex-3 RNA binding, dose response, biochemical, fluorescence polarization (AID 1964);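 note: purified POS-1 fused to maltose binding protein made in E. coli; potency of compounds blocking POS-1 binding to fluorescent RNA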
T1 sequence (G5EF15 whole entry): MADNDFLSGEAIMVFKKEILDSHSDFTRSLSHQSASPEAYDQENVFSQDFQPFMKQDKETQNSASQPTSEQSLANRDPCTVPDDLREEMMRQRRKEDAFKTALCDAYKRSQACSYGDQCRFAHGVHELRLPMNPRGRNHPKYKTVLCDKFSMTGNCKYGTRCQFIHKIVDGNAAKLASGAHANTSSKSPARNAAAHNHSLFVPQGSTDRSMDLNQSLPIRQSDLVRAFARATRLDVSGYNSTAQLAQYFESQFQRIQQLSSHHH

[3] = Luminescence Cell-Based Dose Confirmation HTS to Identify Activators of 5'UTR Stem-Loop Driven Alpha-Synuclein mRNA Translation in H4 Neuroglioblastoma Cells. [Related pubchem assays: 1829 (Project Summary), 1814 (Primary HTS)]; assay type: functional
[4] = Luminescence Cell-Based Dose Response HTS to Identify Activators of Luciferase Translation or Activity in H4 […] Cells. [Related pubchem assays: 1829 (Project Summary), 1814 (Primary HTS)]; assay type: functional
[5] = tested on: H4; experiment: Luminescence Cell-Based Dose Response HTS to Identify Activators of 5'UTR Stem-Loop Driven Prion Protein mRNA Translation in H4 Neuroglioblastoma Cells. [Related pubchem assays: 1829 (Project Summary), 1814 (Primary HTS)]; assay type: functional; settings: Homo sapiens
[6] = target: T2, Zinc finger protein mex-5 (Caenorhabditis elegans, UniProt Q9XUB2); experiment: MEX-5/TCR-2 RNA interaction inhibitors, dose response, biochemical, C. elegans, fluorescence polarization (AID 1960)
T2 sequence (Q9XUB2 whole entry): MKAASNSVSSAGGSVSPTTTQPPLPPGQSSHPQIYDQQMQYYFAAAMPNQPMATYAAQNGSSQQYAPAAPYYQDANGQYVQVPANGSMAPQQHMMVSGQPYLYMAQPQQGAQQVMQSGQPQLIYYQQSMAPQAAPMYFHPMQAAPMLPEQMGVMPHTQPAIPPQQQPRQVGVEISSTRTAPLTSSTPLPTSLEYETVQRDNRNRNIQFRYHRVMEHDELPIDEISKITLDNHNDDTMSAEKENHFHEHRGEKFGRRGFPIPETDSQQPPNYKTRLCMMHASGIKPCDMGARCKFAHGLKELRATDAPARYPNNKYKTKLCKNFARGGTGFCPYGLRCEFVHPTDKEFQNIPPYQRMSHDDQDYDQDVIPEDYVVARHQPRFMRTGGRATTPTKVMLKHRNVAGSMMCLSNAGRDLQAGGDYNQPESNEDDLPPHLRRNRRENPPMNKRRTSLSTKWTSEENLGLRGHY

[7] = target: Troponin, cardiac muscle (Homo sapiens, UniProt P19429+P45379+P63316); experiment: Fluorescence-based biochemical high throughput dose response assay for activators of the calcium sensitivity of cardiac Regulated Thin Filaments (RTF). [Related pubchem assays (depositor defined):AID493008, AID493018, AID504382, AID504383]; assay type: protein-complex assay
[8] = target: Intestinal-type alkaline phosphatase (Mus musculus, UniProt P24822); experiment: PubChem AID 488785; assay type: functional
Chain of Intestinal-type alkaline phosphatase (Mus musculus, UniProt P24822) (P24822 whole entry): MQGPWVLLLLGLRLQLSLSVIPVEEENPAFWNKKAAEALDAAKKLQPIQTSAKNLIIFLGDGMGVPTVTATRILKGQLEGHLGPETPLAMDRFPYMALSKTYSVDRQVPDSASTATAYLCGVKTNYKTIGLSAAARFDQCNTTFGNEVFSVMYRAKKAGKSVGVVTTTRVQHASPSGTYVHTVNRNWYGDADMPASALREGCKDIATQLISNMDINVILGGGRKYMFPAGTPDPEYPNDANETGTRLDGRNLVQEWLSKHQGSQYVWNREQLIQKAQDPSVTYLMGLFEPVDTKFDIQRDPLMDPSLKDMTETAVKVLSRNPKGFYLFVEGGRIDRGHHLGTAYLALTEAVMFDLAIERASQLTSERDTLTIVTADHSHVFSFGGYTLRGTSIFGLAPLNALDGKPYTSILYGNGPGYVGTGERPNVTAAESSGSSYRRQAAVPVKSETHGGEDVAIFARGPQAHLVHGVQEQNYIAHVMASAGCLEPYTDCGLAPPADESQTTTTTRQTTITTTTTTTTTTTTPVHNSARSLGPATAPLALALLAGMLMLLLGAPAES

[9] = target: T3, Alkaline phosphatase, tissue-nonspecific isozyme (Homo sapiens, UniProt P05186); experiment: TNAP enzyme inhibition by screening hits, dose response, selectivity assay for mouse IAP inhibitor project, biochemical, human TNAP, uHTS hits (AID 488906); assay type: functional
T3 sequence (P05186 whole entry): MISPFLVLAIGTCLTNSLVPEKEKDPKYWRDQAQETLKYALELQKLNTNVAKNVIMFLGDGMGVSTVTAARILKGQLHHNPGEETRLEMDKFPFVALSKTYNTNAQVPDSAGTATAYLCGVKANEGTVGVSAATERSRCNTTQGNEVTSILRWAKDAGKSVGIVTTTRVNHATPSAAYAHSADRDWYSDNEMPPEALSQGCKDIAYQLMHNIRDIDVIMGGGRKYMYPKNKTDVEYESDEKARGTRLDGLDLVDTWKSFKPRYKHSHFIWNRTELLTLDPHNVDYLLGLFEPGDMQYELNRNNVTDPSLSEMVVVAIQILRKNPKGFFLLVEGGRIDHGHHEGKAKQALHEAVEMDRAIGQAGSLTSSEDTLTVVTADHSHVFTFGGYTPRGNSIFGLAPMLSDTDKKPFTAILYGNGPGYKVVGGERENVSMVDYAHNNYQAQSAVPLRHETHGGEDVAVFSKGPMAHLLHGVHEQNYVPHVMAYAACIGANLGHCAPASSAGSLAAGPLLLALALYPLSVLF

[10] = target: Intestinal-type alkaline phosphatase (Homo sapiens, UniProt P09923); experiment: inhibition of human intestinal alkaline phosphatase – biochemical, dose response (AID 488876); assay type: functional
Chain of Intestinal-type alkaline phosphatase (Homo sapiens, UniProt P09923) (P09923 whole entry): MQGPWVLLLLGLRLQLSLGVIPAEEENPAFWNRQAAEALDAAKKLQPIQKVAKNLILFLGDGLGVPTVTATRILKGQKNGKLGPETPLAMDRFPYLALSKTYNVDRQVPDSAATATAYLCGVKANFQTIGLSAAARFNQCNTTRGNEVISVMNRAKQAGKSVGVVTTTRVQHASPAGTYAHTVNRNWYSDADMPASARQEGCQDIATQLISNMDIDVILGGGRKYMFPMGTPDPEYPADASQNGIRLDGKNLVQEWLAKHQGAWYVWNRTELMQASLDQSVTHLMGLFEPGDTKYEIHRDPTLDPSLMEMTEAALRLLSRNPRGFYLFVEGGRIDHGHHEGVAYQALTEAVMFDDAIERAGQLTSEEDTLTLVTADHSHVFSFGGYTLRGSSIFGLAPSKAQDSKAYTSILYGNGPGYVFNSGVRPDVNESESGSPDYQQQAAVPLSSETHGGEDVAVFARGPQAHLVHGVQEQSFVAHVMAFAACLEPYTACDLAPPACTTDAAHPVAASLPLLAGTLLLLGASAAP

[11] = target: T4, Hexokinase HKDC1 (Homo sapiens, UniProt Q2TB90); experiment: HKDC1 hexokinase activators, dose response, biochemical, W721R variant (AID 504730); assay type: functional
T4 sequence (Q2TB90 whole entry): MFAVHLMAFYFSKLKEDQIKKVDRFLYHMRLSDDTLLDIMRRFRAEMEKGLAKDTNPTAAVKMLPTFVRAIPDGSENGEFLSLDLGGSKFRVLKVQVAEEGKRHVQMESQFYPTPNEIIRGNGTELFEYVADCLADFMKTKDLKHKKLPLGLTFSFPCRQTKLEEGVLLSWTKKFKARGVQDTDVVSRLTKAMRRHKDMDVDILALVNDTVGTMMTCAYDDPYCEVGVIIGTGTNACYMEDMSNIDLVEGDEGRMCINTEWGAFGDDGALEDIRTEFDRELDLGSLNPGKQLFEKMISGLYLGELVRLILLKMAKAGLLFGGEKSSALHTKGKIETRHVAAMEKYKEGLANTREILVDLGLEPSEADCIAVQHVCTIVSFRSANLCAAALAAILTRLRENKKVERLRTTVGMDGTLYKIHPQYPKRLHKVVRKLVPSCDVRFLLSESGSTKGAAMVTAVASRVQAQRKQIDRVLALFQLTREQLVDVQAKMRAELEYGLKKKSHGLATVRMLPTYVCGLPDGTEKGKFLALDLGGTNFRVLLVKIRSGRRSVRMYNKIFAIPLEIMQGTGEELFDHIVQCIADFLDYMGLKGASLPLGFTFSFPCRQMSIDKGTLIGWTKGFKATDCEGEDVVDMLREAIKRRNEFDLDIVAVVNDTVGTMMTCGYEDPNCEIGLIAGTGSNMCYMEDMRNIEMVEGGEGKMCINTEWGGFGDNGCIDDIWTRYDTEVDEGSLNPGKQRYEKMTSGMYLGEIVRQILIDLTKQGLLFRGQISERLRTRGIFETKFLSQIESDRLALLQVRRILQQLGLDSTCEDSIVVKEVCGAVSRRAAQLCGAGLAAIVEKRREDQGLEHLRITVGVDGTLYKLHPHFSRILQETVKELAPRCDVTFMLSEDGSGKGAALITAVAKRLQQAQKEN

[12] = target: T5, Hexokinase-1 (Homo sapiens, UniProt P19367); experiment: hexokinase 1 activators, dose response, selectivity assay for HKDC1 activator project, biochemical (AID 504762); assay type: functional
T5 sequence (P19367 whole entry): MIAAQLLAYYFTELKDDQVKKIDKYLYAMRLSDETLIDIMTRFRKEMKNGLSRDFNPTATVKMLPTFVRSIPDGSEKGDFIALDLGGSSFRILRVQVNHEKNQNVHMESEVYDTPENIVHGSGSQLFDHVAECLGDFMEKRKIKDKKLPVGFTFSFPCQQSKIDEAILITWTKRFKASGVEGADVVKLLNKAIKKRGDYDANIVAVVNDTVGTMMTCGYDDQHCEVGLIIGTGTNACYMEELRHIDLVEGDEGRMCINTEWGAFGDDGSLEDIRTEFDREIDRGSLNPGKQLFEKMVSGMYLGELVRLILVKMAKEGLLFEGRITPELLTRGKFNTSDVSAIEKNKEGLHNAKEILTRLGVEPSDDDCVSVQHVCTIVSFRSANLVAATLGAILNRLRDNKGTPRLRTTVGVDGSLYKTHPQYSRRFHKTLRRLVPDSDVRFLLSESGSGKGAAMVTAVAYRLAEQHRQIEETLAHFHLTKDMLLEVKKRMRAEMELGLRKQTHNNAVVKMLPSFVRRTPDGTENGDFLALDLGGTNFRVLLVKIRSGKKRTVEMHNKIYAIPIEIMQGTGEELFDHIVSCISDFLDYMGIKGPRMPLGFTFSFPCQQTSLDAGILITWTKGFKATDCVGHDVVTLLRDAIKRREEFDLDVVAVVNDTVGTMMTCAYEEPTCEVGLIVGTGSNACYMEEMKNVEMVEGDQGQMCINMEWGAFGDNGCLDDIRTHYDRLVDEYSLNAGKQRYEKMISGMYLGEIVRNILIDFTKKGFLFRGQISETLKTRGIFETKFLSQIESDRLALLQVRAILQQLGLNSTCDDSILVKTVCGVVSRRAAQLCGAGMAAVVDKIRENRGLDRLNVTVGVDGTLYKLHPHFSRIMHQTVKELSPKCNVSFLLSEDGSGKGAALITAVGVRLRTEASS

SMILES	AC50 [1]	EC50 [11]	EC50 [12]	further results
CCc1cc(Cl)c(OC)c(C(=O)NC[C@@H]2CCCN2CC)c1O	19.4 µM (active)			
Cc1cc(/C=C2\SC(=S)N(Cc3ccco3)C2=O)c(C)n1-c1cccnc1				EC50 [2]: 11.3 µM (inconclusive); EC50 [3]: 45.2 µM (active); EC50 [4]: 119 µM (active); EC50 [5]: 3.71 µM (active); EC50 [6]: 20.2 µM (inconclusive); EC50 [7]: > 2.65 µM (active)
O=C(NC1CCCCC1)Oc1cc2oc(=O)sc2cc1Cl				IC50 [8]: 3.78 µM (active); IC50 [9]: 11.8 µM (active); IC50 [10]: 3.54 µM (active)
COc1ccc(/C=C(/NC(=O)c2cccc([N+](=O)[O-])c2)C(=O)O)cc1OC	18.5 µM (active)			
COc1c(F)c(F)cc2c(=O)c(C(=O)O)cn(C3CC3)c12	3.88 µM (active)			
COC(=O)c1c(NC(C)=O)sc(Cc2ccccc2)c1C		23.9 µM (inactive)	39.4 µM (inactive)	
Cc1ccc(C2=NN=C(Nc3ccc(F)cc3)SC2)cc1		10 µM (active)	17.8 µM (active)	
C[N+](C)(CCCCCC[N+](C)(C)CCCN1C(=O)c2cccc3cccc(c23)C1=O)CCCN1C(=O)c2cccc3cccc(c23)C1=O		20.4 µM (inactive)	17.9 µM (active)	
